Measurements: patent publication US20030040644A1, “Synthesis of nitroalcohol diastereomers” (Pharm-Eco Laboratories, Inc., priority 1999, published 2003)
Several values for one entry are separate records, joined by “and”; a condition that tells them apart may be missing. Equal entries are not always repeated.

Assay: Solubility of the diastereomers in several solvent systems (mobile phases)
Format: physicochemical
Method: In order to have a concentrated sample for loading on the simulated moving bed separation system, a high degree of solubility in the mobile phase to be used for the separation is desirable. Therefore, the solubility of the 1-nitro-3-benzyl-3-(N-ethoxycarbonyl)amino-2-propanol diastereomers in several solvent systems was determined.

- % Solubility (mobile phase 10% ethyl acetate/90% methylene chloride): 3.8%
- % Solubility (mobile phase 40% water/60% methanol): 1.7%
- % Solubility (mobile phase 50% heptane/50% THF): 20%
- % Solubility (mobile phase 50% heptane/50% ethyl acetate): 3.81%
- % Solubility (mobile phase 50% methanol/50% THF): 78%
- % Solubility (mobile phase 60% water/40% acetonitrile): 3.29%
- % Solubility (mobile phase 70% heptane/30% THF): 4%
- % Solubility (mobile phase 70% heptane/30% ethanol): 20%
- % Solubility (mobile phase 70% heptane/30% ethyl acetate): 1.11% and 1.09% and 1.31%
- % Solubility (mobile phase 70% heptane/30% isopropanol): 0.36%
- % Solubility (mobile phase 80% heptane/20% ethanol): 0.31% and 1.86%
- % Solubility (mobile phase 80% toluene/20% THF): 6%
- % Solubility (mobile phase 100% methanol): 40%
Structure (SMILES): CCOC(=O)NC(Cc1ccccc1)C(O)C[N+](=O)[O-] (single isomer, unassigned) [1-nitro-3-benzyl-3-benzyl-3-(N-ethoxycarbonyl)amino-2-propanol diastereomers, 1-nitro-3-benzyl-3-(N-ethoxycarbonyl)amino-2-propanol]
